Measured values reported in US9663513B2, “Pyrimidine PDE10 inhibitors” (Merck Sharp & Dohme Corp., priority 2012, dated 2017).

Target: human PDE10A2 (Homo sapiens (Human), UniProt Q9Y233)
Experiment: PDE10 fluorescence polarization (IMAP FP) inhibition assay
Assay type: biochemical
Details: human PDE10A2 from transfected AD293 cells; FAM-labeled cAMP 50 nM; apparent inhibition constant; read-out: PDE10A Ki
Procedure, shortened: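 Cytoplasmic lysate of AD293 cells transiently expressing human PDE10A2 (enzyme level giving 20% conversion) incubated with 50 nM FAM-cAMP in pH 7.2 Tris/MgCl2 buffer, 30 min at room temperature. IMAP binding solution added, FP read after ≥1 h; 10-point 3-fold compound titrations fitted to a four-parameter equation.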

Sequence of human PDE10A2 (Q9Y233 267-1055): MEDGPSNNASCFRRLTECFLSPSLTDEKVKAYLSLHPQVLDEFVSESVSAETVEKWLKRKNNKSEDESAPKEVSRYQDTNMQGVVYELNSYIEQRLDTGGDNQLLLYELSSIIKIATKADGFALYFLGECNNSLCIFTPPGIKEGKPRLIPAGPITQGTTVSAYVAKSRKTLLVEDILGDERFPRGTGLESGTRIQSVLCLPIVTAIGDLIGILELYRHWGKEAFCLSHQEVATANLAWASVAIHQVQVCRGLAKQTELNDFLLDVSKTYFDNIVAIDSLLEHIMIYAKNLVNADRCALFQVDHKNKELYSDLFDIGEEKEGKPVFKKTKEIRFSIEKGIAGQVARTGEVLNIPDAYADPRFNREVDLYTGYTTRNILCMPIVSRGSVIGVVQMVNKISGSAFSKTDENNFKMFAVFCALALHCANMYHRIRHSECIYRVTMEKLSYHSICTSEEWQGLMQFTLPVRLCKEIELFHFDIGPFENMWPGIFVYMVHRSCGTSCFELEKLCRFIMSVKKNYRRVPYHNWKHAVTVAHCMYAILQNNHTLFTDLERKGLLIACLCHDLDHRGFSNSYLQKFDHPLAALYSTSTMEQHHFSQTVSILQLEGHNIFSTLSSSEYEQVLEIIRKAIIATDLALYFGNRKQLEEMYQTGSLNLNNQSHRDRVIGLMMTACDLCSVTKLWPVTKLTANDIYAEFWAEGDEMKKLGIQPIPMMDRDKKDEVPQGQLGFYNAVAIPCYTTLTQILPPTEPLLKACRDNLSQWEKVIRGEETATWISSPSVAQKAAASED

| SMILES | Ki [nM] |
| --- | --- |
| COc1ccc([C@H]2C[C@@H]2COc2nc(C)ncc2-c2cc(=O)[nH]n2C)nc1 [Example 238, 5-(4-(((1S,2S)-2-(5-methoxypyridin-2-yl)cyclopropyl)methoxy)-2-methylpyrimidin-5-yl)-1-methyl-1,2-dihydropyrazol-3-one] | 22.9 |
| Cc1ccc([C@H]2C[C@@H]2COc2nc(C)ncc2C2=CCOCC2)nc1 [Example 51, 5-(3,6-dihydro-2H-pyran-4-yl)-2-methyl-4-(((1S,2S)-2-(5-methylpyridin-2-yl)cyclopropyl)methoxy)pyrimidine] | 1.96 |
| COc1ccc([C@H]2C[C@@H]2COc2nc(C)ncc2C2=CCOCC2)nc1 [Example 115, 5-(3,6-dihydro-2H-pyran-4-yl)-4-(((1S,2S)-2-(5-methoxypyridin-2-yl)cyclopropyl)methoxy)-2-methylpyrimidine] | 0.76 |
| COc1ccc([C@H]2C[C@@H]2COc2nc(C)ncc2-c2ccc(C(=O)NCCO)cc2)nc1 [Example 107, N-(2-hydroxyethyl)-4-(4-(((1S,2S)-2-(5-methoxypyridin-2-yl)cyclopropyl)methoxy)-2-methylpyrimidin-5-yl)benzamide] | 1.06 |
| CCc1ccc([C@H]2C[C@@H]2COc2nc(C)ncc2-c2cn(C)nc2C(C)O)nc1 (stereo partly drawn) [Example 163, 1-(4-(4-(((1S,2S)-2-(5-ethylpyridin-2-yl)cyclopropyl)methoxy)-2-methylpyrimidin-5-yl)-1-methyl-1H-pyrazol-3-yl)ethanol] | 0.24 |
| Cc1ccc([C@H]2C[C@@H]2COc2nc(C)ncc2-c2cnnc(Br)c2)nc1 [Example 59, 3-bromo-5-(2-methyl-4-(((1S,2S)-2-(5-methylpyridin-2-yl)cyclopropyl)methoxy)pyrimidin-5-yl)pyridazine] | 4.34 |
| COc1ccc([C@H]2C[C@@H]2COc2nc(C)ncc2-c2cnc(CO)cn2)nc1 [Example 98, (5-(4-(((1S,2S)-2-(5-methoxypyridin-2-yl)cyclopropyl)methoxy)-2-methylpyrimidin-5-yl)pyrazin-2-yl)methanol] | 12 |
| Cc1ccnc([C@H]2C[C@@H]2COc2nc(C)ncc2C2CCC3(CC2)OCCO3)c1 [Example 201, 2-methyl-4-(((1S,2S)-2-(4-methylpyridin-2-yl)cyclopropyl)methoxy)-5-(1,4-dioxaspiro[4.5]decan-8-yl)pyrimidine] | 17.1 |
| Cc1ccc([C@H]2C[C@@H]2COc2nc(C)ncc2-c2ccc3nccn3c2)nc1 [Example 137, 6-(2-methyl-4-(((1S,2S)-2-(5-methylpyridin-2-yl)cyclopropyl)methoxy)pyrimidin-5-yl)imidazo[1,2-a]pyridine] | 0.63 |
| COc1ccc([C@H]2C[C@@H]2COc2nc(C)ncc2-c2ccc(C#N)cc2)nc1 [Example 171, 4-(4-(((1S,2S)-2-(5-methoxypyridin-2-yl)cyclopropyl)methoxy)-2-methylpyrimidin-5-yl)benzonitrile] | 1.19 |
| Cc1ccc([C@H]2C[C@@H]2COc2nc(C)ncc2C2CCC3(CC2)OCCO3)nc1 [Example 184, 2-methyl-4-(((1S,2S)-2-(5-methylpyridin-2-yl)cyclopropyl)methoxy)-5-(1,4-dioxaspiro[4.5]decan-8-yl)pyrimidine] | 2.81 |
| CCn1nnc(-c2ccc(-c3cnc(C)nc3OC[C@H]3C[C@@H]3c3ccc(OC)cn3)cn2)n1 [Example 232, 5-(6-(2-ethyl-2H-tetrazol-5-yl)pyridin-3-yl)-4-(((1S,2S)-2-(5-methoxypyridin-2-yl)cyclopropyl)methoxy)-2-methylpyrimidine] | 0.77 |
| COc1ncccc1-c1cnc(C)nc1OC[C@H]1C[C@@H]1c1ccc(C)cn1 [Example 16, 5-(2-methoxypyridin-3-yl)-2-methyl-4-(((1S,2S)-2-(5-methylpyridin-2-yl)cyclopropyl)methoxy)pyrimidine] | 0.74 |
| Cc1cccc([C@H]2C[C@@H]2COc2nc(C)ncc2-c2cn(C)nc2C(C)O)n1 (stereo partly drawn) [Example 161, 1-(1-methyl-4-(2-methyl-4-(((1S,2S)-2-(6-methylpyridin-2-yl)cyclopropyl)methoxy)pyrimidin-5-yl)-1H-pyrazol-3-yl)ethanol] | 2.28 |
| Cc1ncc(-c2ccc(C(C)O)cc2)c(OC[C@H]2C[C@@H]2c2ccc3ccccc3n2)n1 (single isomer, unassigned) [Example 34] | 0.01 |
| Cc1ncc(-c2ccc(CO)nc2)c(OC[C@H]2C[C@@H]2c2ccc3ccccc3n2)n1 [Example 154, (5-(2-methyl-4-(((1S,2S)-2-(quinolin-2-yl)cyclopropyl)methoxy)pyrimidin-5-yl)pyridin-2-yl)methanol] | 0.01 |
| COc1ccc([C@H]2C[C@@H]2COc2nc(C)ncc2-c2ccc(S(C)(=O)=O)nc2)nc1 [Example 63, 4-(((1S,2S)-2-(5-methoxypyridin-2-yl)cyclopropyl)methoxy)-2-methyl-5-(6-(methylsulfonyl)pyridin-3-yl)pyrimidine] | 2.95 |
| Cc1ccnc([C@H]2C[C@@H]2COc2nc(C)ncc2-c2cn(C)nc2C(C)O)c1 (stereo partly drawn) [Example 160, 1-(1-methyl-4-(2-methyl-4-(((1S,2S)-2-(4-methylpyridin-2-yl)cyclopropyl)methoxy)pyrimidin-5-yl)-1H-pyrazol-3-yl)ethanol] | 2.92 |
| Cc1ncc(-c2cccn3ccnc23)c(OC[C@H]2C[C@@H]2c2ccc3ccccc3n2)n1 [Example 134, 2-((1S,2S)-2-((5-(imidazo[1,2-a]pyridin-8-yl)-2-methylpyrimidin-4-yloxy)methyl)cyclopropyl)quinoline] | 4.03 |
| Cc1cc(-c2cnc(C)nc2OC[C@H]2C[C@@H]2c2ccc3ccccc3n2)ccn1 [Example 153, 2-((1S,2S)-2-((2-methyl-5-(2-methylpyridin-4-yl)pyrimidin-4-yloxy)methyl)cyclopropyl)quinoline] | 0.01 |
| Cc1ccc([C@H]2C[C@@H]2COc2nc(C)ncc2-c2ccc(C(C)(C)O)nc2C)nc1 [Example 138, 2-(6-Methyl-5-(2-methyl-4-(((1S,2S)-2-(5-methylpyridin-2-yl)cyclopropyl)methoxy)pyrimidin-5-yl)pyridin-2-yl)propan-2-ol] | 0.23 |
| Cc1ccc([C@H]2C[C@@H]2COc2nc(C)ncc2-c2ccc3[nH]ccc3c2)nc1 [Example 48, 5-(2-methyl-4-(((1S,2S)-2-(5-methylpyridin-2-yl)cyclopropyl)methoxy)pyrimidin-5-yl)-1H-indole] | 3.25 |
| Cc1ccnc([C@H]2C[C@@H]2COc2nc(C)ncc2-c2cn(C)nc2C(C)O)c1 (stereo partly drawn) [Example 159, 1-(1-methyl-4-(2-methyl-4-(((1S,2S)-2-(4-methylpyridin-2-yl)cyclopropyl)methoxy)pyrimidin-5-yl)-1H-pyrazol-3-yl)ethanol] | 1.47 |
| Cc1ccc([C@H]2C[C@@H]2COc2nc(C)ncc2-c2c(C)cccc2C)nc1 [Example 11, 5-(2,6-dimethylphenyl)-2-methyl-4-(((1S,2S)-2-(5-methylpyridin-2-yl)cyclopropyl)methoxy)pyrimidine] | 4.43 |
| Cc1ncc(-c2ccc3ncc(C)n3c2)c(OC[C@H]2C[C@@H]2c2ccc3ccccc3n2)n1 [Example 129, 2-((1S,2S)-2-((2-methyl-5-(3-methylimidazo[1,2-a]pyridin-6-yl)pyrimidin-4-yloxy)methyl)cyclopropyl)quinoline] | 0.02 |
